Results from patent US12673933B2, “Aminopyrazine compounds as HPK1 inhibitor and the use thereof” (BEIGENE, LTD., priority 2019, dated 2026).

Biological target: T1, HPK1 kinase (aa1-346, Life Technologies) (Homo sapiens, UniProt Q92918)
T1 construct: HPK1 kinase (aa1-346, Life Technologies); purchased Life Technologies
T1 sequence (Q92918 1-346): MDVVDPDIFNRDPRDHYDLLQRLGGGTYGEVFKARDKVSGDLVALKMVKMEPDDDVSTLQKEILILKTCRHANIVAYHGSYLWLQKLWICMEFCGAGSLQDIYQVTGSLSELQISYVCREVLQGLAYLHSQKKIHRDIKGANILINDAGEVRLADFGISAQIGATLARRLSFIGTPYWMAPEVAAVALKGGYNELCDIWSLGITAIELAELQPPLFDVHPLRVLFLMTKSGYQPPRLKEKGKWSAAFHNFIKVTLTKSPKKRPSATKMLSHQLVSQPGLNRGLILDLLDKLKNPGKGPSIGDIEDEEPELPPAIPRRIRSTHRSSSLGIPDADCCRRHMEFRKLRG
Assay: HPK Kinase Activity Assay at 1 mM ATP (TR-FRET)
Assay type: biochemical
Conditions: HPK1 kinase 40 nM, 0.5 μM STK1 substrate, read-out: Enzymatic activity IC50
Method: HPK Kinase Activity Assay at 1 mM ATP
Compounds disclosed herein were tested for inhibition of HPK1 kinase (aa1-346, Life Technologies) activity in assays based on the time-resolved fluorescence-resonance energy transfer (TR-FRET) methodology. The assays were carried out in 384-well low volume black plates in a reaction mixture containing HPK1 kinase (40 nM), 1 mM ATP, 0.5 μM STK1 substrate and 0-10 μM compound in buffer containing 50 mM HEPES, 0.01% BSA, 0.1 mM Orthovanadate, 10 mM MgCl2, 1 mM DTT, pH=7.0, 0.005% Tween-20. The kinase was incubated with the compounds disclosed herein or DMSO for 60 minutes at room temperature and the reaction was initiated by the addition of ATP and STK1 substrate. After reaction at room temperature for 120 minutes, an equal volume of stop/detection solution was added according to the manufacture's instruction (CisBio). The stop/detection solution contained STK Antibody-Cryptate and XL665-conjugated streptavidin in Detection Buffer. The TR-FRET signals (ratio of fluorescence emission at 665 nm over emission at 620 nm with excitation at 337 nm wavelength) were recorded on a PHERAstar FS plate reader (BMG Labtech). Phosphorylation of STK1 substrate led to the binding of STK Antibody-Cryptate to the biotinylated STK1 substrate, which places fluorescent donor (Eu^3+ crypate) in close proximity to the accepter (Streptavidin-XL665), thus resulting in a high degree of fluorescence resonance energy transfer. The inhibition of HPK1 in presence of increasing concentrations of compounds was calculated based on the ratio of fluorescence at 665 nm to that at 620 nm. The IC50 for each compound was derived from fitting the data to the four-parameter logistic equation by Graphpad Prism software.

IC50 [nM]	SMILES
6.6	Cc1cc(-c2cnc(N)c(-n3cc(C(=O)NCC4CC4)cn3)n2)cc2c1CCN(C)C2 [Example 297, 1-(3-amino-6-(2,5-dimethyl-1,2,3,4-tetrahydroisoquinolin-7-yl)pyrazin-2-yl)-N-(cyclopropylmethyl)-1H-pyrazole-4-carboxamide]
5.3	CCOCCN(C)C(=O)c1cnn(-c2nc(-c3cc(C)c4c(c3)CN(C)CC4)cnc2N)c1 [Example 292, 1-(3-amino-6-(2,5-dimethyl-1,2,3,4-tetrahydroisoquinolin-7-yl)pyrazin-2-yl)-N-(2-ethoxyethyl)-N-methyl-1H-pyrazole-4-carboxamide]
24	COCCn1cc(Oc2nc(-c3cc(C)c4c(c3)CN(C)CC4)cnc2N)cn1 [Example 276, 5-(2,5-dimethyl-1,2,3,4-tetrahydroisoquinolin-7-yl)-3-((1-(2-methoxyethyl)-1H-pyrazol-4-yl)oxy)pyrazin-2-amine]
89	Cc1cc(-c2cnc(N)c(-n3cc(C(=O)N(C)C4CCOC4)cn3)n2)cc2c1CCN(C)C2 (centres unmarked) [Example 306, 1-(3-amino-6-(2,5-dimethyl-1,2,3,4-tetrahydroisoquinolin-7-yl)pyrazin-2-yl)-N-methyl-N-(tetrahydrofuran-3-yl)-1H-pyrazole-4-carboxamide]
16	CN1CCc2c(cc(-c3cnc(N)c(-n4cc(C(=O)N(C)C)cn4)n3)cc2NC2CC2)C1 [Example 290, 1-(3-amino-6-(5-(cyclopropylamino)-2-methyl-1,2,3,4-tetrahydroisoquinolin-7-yl)pyrazin-2-yl)-N,N-dimethyl-1H-pyrazole-4-carboxamide]
10	Cc1cc(-c2cnc(N)c(-n3cc(C(=O)N(C)CC4CCOC4)cn3)n2)cc2c1CCN(C)C2 (centres unmarked) [Example 304, 1-(3-amino-6-(2,5-dimethyl-1,2,3,4-tetrahydroisoquinolin-7-yl)pyrazin-2-yl)-N-methyl-N-((tetrahydrofuran-3-yl)methyl)-1H-pyrazole-4-carboxamide]
25	Cc1cc(-c2cnc(N)c(C(=O)Nc3ccncc3)n2)cc2c1CCN(C)C2 [Example 287, 3-amino-6-(2,5-dimethyl-1,2,3,4-tetrahydroisoquinolin-7-yl)-N-(pyridin-4-yl)pyrazine-2-carboxamide]
18	CC#Cc1nn(-c2nc(-c3cc(C)c4c(c3)CN(C)CC4)cnc2N)cc1C(=O)N(C)C [Example 319, 1-(3-amino-6-(2,5-dimethyl-1,2,3,4-tetrahydroisoquinolin-7-yl)pyrazin-2-yl)-N,N-dimethyl-3-(prop-1-ynyl)-1H-pyrazole-4-carboxamide]
9.7	CNc1cc(-c2cnc(N)c(-n3cc(C(=O)N(C)C)cn3)n2)cc2c1CCN(C)C2 [Example 289, 1-(3-amino-6-(2-methyl-5-(methylamino)-1,2,3,4-tetrahydroisoquinolin-7-yl)pyrazin-2-yl)-N,N-dimethyl-1H-pyrazole-4-carboxamide]
54	Cc1cc(-c2cnc(N)c(-n3cc(C(=O)N(C)CCN4CCCC4)cn3)n2)cc2c1CCN(C)C2 [Example 302, 1-(3-amino-6-(2,5-dimethyl-1,2,3,4-tetrahydroisoquinolin-7-yl)pyrazin-2-yl)-N-methyl-N-(2-(pyrrolidin-1-yl)ethyl)-1H-pyrazole-4-carboxamide]
15	CCOCCn1cc(Oc2nc(-c3cc(C)c4c(c3)CN(C)CC4)cnc2N)cn1 [Example 278, 5-(2,5-dimethyl-1,2,3,4-tetrahydroisoquinolin-7-yl)-3-((1-(2-ethoxyethyl)-1H-pyrazol-4-yl)oxy)pyrazin-2-amine]
8.3	Cc1cc(-c2cnc(N)c(Oc3cnn(C(C)(C)CC#N)c3)n2)cc2c1CCN(C)C2 [Example 313, 3-(4-(3-amino-6-(2,5-dimethyl-1,2,3,4-tetrahydroisoquinolin-7-yl)pyrazin-2-yloxy)-1H-pyrazol-1-yl)-3-methylbutanenitrile]

Continued, compound first:

SMILES	IC50 [nM]
Cc1cc(-c2cnc(N)c(OCc3ccccc3)n2)cc2c1CCN(C)C2 [Example 18, 3-(benzyloxy)-5-(2,5-dimethyl-1,2,3,4-tetrahydroisoquinolin-7-yl)pyrazin-2-amine]	73
Cc1cc(-c2cnc(N)c(Oc3cnn(C(C)C)c3)n2)cc2c1CN(C)CC2 [Example 242, 5-(2,8-dimethyl-1,2,3,4-tetrahydroisoquinolin-6-yl)-3-(1-isopropyl-1H-pyrazol-4-yloxy)pyrazin-2-amine]	54
Cc1cc(-c2cnc(N)c(OCc3cc(Cl)ncc3OC(C)C)n2)cc2c1CCN(C)C2 [Example 12, 3-((2-chloro-5-isopropoxypyridin-4-yl)methoxy)-5-(2,5-dimethyl-1,2,3,4-tetrahydroisoquinolin-7-yl)pyrazin-2-amine]	27
Cc1cc(-c2cnc(N)c(OCc3ccnc(N)c3)n2)cc2c1CCN(C)C2 [Example 10, 3-((2-aminopyridin-4-yl)methoxy)-5-(2,5-dimethyl-1,2,3,4-tetrahydroisoquinolin-7-yl)pyrazin-2-amine]	5.2
Cc1cc(-c2cnc(N)c(O[C@@H](C)c3c(Cl)ccc(C(=O)NC4CC4)c3Cl)n2)cc2c1CCN(C)C2 [Example 47B, (S)-3-(1-(3-amino-6-(2,5-dimethyl-1,2,3,4-tetrahydroisoquinolin-7-yl)pyrazin-2-yloxy)ethyl)-2,4-dichloro-N-cyclopropylbenzamide]	2680
Cc1cc(-c2cnc(N)c(OCc3ccnc(N)c3OC3CCOCC3)n2)cc2c1CCN(C)C2 [Example 249, 3-((2-amino-3-((tetrahydro-2H-pyran-4-yl)oxy)pyridin-4-yl)methoxy)-5-(2,5-dimethyl-1,2,3,4-tetrahydroisoquinolin-7-yl)pyrazin-2-amine]	8
Cc1cc(-c2cnc(N)c(OC3CCCc4cnccc43)n2)cc2c1CCN(C)C2 (centres unmarked) [Example 26, 5-(2,5-dimethyl-1,2,3,4-tetrahydroisoquinolin-7-yl)-3-(5,6,7,8-tetrahydroisoquinolin-5-yloxy)pyrazin-2-amine]	113
Cc1cc(-c2cnc(N)c(OCc3ccnc4[nH]cnc34)n2)cc2c1CCN(C)C2 [Example 44, 3-((3H-imidazo[4,5-b]pyridin-7-yl)methoxy)-5-(2,5-dimethyl-1,2,3,4-tetrahydroisoquinolin-7-yl)pyrazin-2-amine and 3-((1H-imidazo[4,5-b]pyridin-7-yl)methoxy)-5-(2,5-dimethyl-1,2,3,4-tetrahydroisoquinolin-7-yl)pyrazin-2-amine]	19
Cc1cc(-c2cnc(N)c(OCc3ccnc(C#CC(C)(C)C)c3)n2)cc2c1CCN(C)C2 [Example 24, 5-(2,5-dimethyl-1,2,3,4-tetrahydroisoquinolin-7-yl)-3-((2-(3,3-dimethylbut-1-yn-1-yl)pyridin-4-yl)methoxy)pyrazin-2-amine]	61
Cc1cc(-c2cnc(N)c(OCc3ccnc(C#CC(C)(C)O)c3)n2)cc2c1CCN(C)C2 [Example 14, 4-(4-(((3-amino-6-(2,5-dimethyl-1,2,3,4-tetrahydroisoquinolin-7-yl)pyrazin-2-yl)oxy)methyl)pyridin-2-yl)-2-methylbut-3-yn-2-ol]	9.4
Cc1cc(-c2cnc(N)c(OCc3ccnc(N)c3O[C@H]3CCOC3)n2)cc2c1CCN(C)C2 [Example 282, (S)-3-((2-amino-3-((tetrahydrofuran-3-yl)oxy)pyridin-4-yl)methoxy)-5-(2,5-dimethyl-1,2,3,4-tetrahydroisoquinolin-7-yl)pyrazin-2-amine]	6.6
